Results reported in patent publication US11766412B2, “Methods of treating or alleviating adenylosuccinatelyase (ADSL) deficiency using spermidine or a pharmaceutically acceptable salt of spermidine” (GENEHEAL BIOTECHNOLOGY CO., LTD., priority 2016, dated 2023).
Non-standard residues stand in square brackets, D forms with d. Residues, ends and D or L forms follow the SMILES beside them. Arg(NO2) = N=C(NCCC[C@H](N)C(=O)O)N[N+](=O)[O-]; Dab = NCC[C@H](N)C(=O)O

Tested on: SAICAR synthetase
Assay: Inhibition of SAICAR accumulation, biochemical enzyme activity experiments and cell biology experiments
Excerpt: On the basis of the above results, the crystal structure conformations in SAICAR synthetases of Saccharomyces cerevisiae (PDB: 2CNQ) and Escherichia coli (PDB: 2GQS) are used as receptor structures for calculating and screening, since there is no conformation which can bind CAIR in human PAICS crystal structure, and no catalytic conformation formed in the catalytic region, and the results obtained by calculation are not reliable. 4661 of small molecule drugs in the DrugBank (www.drugbank.ca) are calculated and screened by using the ligand fit module of Discovery studio. The conformations are ordered according to dock scores, and then the first 500 conformations are selected. After eliminating the repetitions, key screening results are obtained. In addition, the inhibition ratios of the compounds against SAICAR accumulation are confirmed by biochemical enzyme activity experiments and cell biology experiments, as shown in Table 1.

Compound | Inhibition ratios against SAICAR accumulation [%]
N[C@@H](CCC(=O)N[C@@H](CSCc1ccc([N+](=O)[O-])cc1)C(=O)NCC(=O)O)C(=O)O [D1303686, S-(P-Nitrobenzyl)Glutathione] | 63.83
NC[C@H]1O[C@H](O[C@H]2[C@H](O)[C@@H](O)[C@H](N)C[C@@H]2N)[C@H](N)[C@@H](O)[C@@H]1O [D1304808, Neamine] | 37.11
N[C@@H](Cc1cc(N=Nc2ccccn2)c(O)cc1O)C(=O)O [DB01634, 2-Oxy-4-Hydroxy-5-(2-Hydrazinopyridine)Phenylalanine] | 23.7
NC(CC1=CC(=NC2CC2c2ccccc2)C(O)=CC1=O)C(=O)O (stereo not drawn) [DB01657, 2-Amino-3-[4-Hydroxy-6-Oxo-3-(2-Phenyl-Cyclopropylimino)-Cyclohexa-1,4-Dienyl]-Propionic acid] | 22.9
Cc1ncc(COP(=O)(O)O)c(CN[C@@H](CCC(=O)O)C(=O)O)c1O [DB01813, Pyridoxyl-Glutamic Acid-5′-Monophosphate] | 40.9
N[C@@H](CCCCNC(C(=O)O)C(=O)O)C(=O)O [DB01815, Nz-(Dicarboxymethyl)Lysine] | 22.68
NCC[C@H](NC(=O)[C@@H](N)CCCN=C(N)N[N+](=O)[O-])C(N)=O [DB01821, L-N(Omega)-Nitroarginine-2,4-L-Diaminobutyric Amide] (H-[Arg(NO2)]-[Dab]-NH2) | 57.11
Nc1ncnc2c1ncn2[C@@H]1O[C@H](COP(=O)(O)OC(=O)[C@@H](N)CC(=O)O)[C@@H](O)[C@H]1O [DB01895, Aspartyl-Adenosine-5′-Monophosphate] | 22.918
NC(CSC1C=C(C(N)C(=O)O)ON1)C(=O)O (stereo not drawn) [DB01974, 2-Amino-3-[5-(Amino-Carboxy-Methyl)-2,3-Dihydro-Isoxazol-3-Ylsulfanyl]-Propionic Acid] | 66.711
NCCC[C@H](NC(=O)CP(=O)(O)O)C(=O)O [DB02011, N-(phosphonoacetyl)-L-Ornithine] | 41.85
O=c1[nH]cnc2c([C@@H]3N[C@H](COP(=O)(O)O)[C@@H](O)[C@H]3O)c[nH]c12 [DB02075, (1s)-1-(9-Deazahypoxanthin-9-yl)-1,4-Di Deoxy-1,4-Imino-D-Ribitol-5-Phosphate] | 28.5
NC(=O)[C@@H]1C[C@@H](NC(=O)[C@@H](N)CCCN=C(N)N[N+](=O)[O-])CN1 [DB02077, L-N(Omega)-Nitroarginine-(4r)-Amino-L-Proline Amide] | 71.8
NC(=NCCCC(N)C(=O)O)NC(CC(=O)O)C(=O)O (stereo not drawn) [DB02267, Argininosuccinate] | 86.81
OCC(OS(O)(O)O)[C@H](O)CN1C[C@@H](O)[C@H](O)[C@H]1CO (stereo partly drawn) [DB02492, Ghavamiol] | 17.4
Cc1ccc(OCC(=CC=O)Nc2cc(C[C@H](N)C(=O)O)c(O)cc2O)cc1 [DB02537, 2 -Hydroxy-5-({1-[(4-Methylphenoxy)Methyl]-3-Oxoprop-1-Enyl}Amino)-L-Tyrosin] | 71.1
Cc1ncc(COP(=O)(O)O)c(CNCC(=O)O)c1O [DB02824, N-Pyridoxyl-Glycine-5-Monophosphate] | 77.97
CC(N)C(CCCCCC(=O)O)NC(=O)OP(=O)(O)O (stereo not drawn) [DB02927, Mixed Carbamic Phosphoric Acid Anhydride of 7,8-Diaminononanic acid] | 22.8
CC(N)C(CCCCCC(=O)O)CC(=O)O (stereo not drawn) [DB02941, 3-(1-Aminoethyl)Nonanedioic Acid] | 69.8
N[C@@H](CCC(=O)N[C@@H](CS(=O)(=O)O)C(=O)NCC(=O)O)C(=O)O [DB03003, Glutathione Sulfonic acid] | 38
C=C[C@@H](NC(=O)[C@H](CS)NC(=O)CCC[C@H](N)C(=O)O)C(=O)O [DB03427, Delta-(L-Alpha-Aminoadipoyl)-L-Cysteinyl-D-Vinylglycine] | 13.3

Compound | Inhibition ratios against SAICAR accumulation [%]
Cc1ncc(COP(=O)(O)O)c(CNC(C(C)C)P(=O)(O)O)c1O (stereo not drawn) [DB03433, {[(3-Hydroxy-2-Methyl-5-Phosphonooxymethyl-Pyridin-4-ylmethyl)-Amino]-2-Methyl-Propyl}-Phosphonic Acid] | 53.38
NCCCCNCCCN [DB03566, Spermidine] | 68.98
NCCC[C@H](NC(=O)CCC(=O)O)C(=O)O [DB03582, N-2-Succinylornithine] | 19.97
N[C@@H](CCC(=O)N[C@@H](CSCc1ccccc1)C(=O)NCC(=O)O)C(=O)O [DB03602, S-Benzyl-Glutathione] | 36.5
CC(N)C(CCCCCC(=O)O)NC(=O)O (stereo not drawn) [DB03624, 7-(Carboxyamino)-8-Amino-Nonanoic Acid] | 51.9
C[C@@H](NC(=O)CCCC[C@H](NC(=O)CN)C(=O)O)C(=O)O [DB03927, Glycyl-L-Alpha-Amino-Epsilon-Pimelyl-D-Alanine] | 29.859
N[C@@H](CCC(=O)N[C@@H](CSCO)C(=O)NCC(=O)O)C(=O)O [DB04153, S-Hydroxymethyl Glutathione] | 58
NC(CCCCN[C@@H](CCC(=O)O)C(=O)O)C(=O)O (stereo partly drawn) [DB04207, N-(5-Amino-5-Carboxypentyl)-Glutamic Acid] | 65.69
N[C@@H](CSC1CC(CC(=O)O)ON1N)C(=O)O (stereo partly drawn) [DB04323, 2-Amino-3-(Cystein-S-Yl)-Isoxazolidin-5-Yl-Acetic acid] | 56.68
N[C@@H](CCC(=O)N[C@@H](CSCc1cccc(I)c1)C(=O)NCC(=O)O)C(=O)O [DB04341, S-(3-Iodobenzyl)Glutathione] | 9.9
Cc1cccc(C2=C(c3ccc4ncccc4n3)CNN2)n1 [DB04434, Naphthyridine Inhibitor] | 22.98
CN(C)c1ncnc2c1ncn2[C@@H]1O[C@H](COP(=O)(O)O)[C@@H](N)[C@H]1O [DB04602, PUROMYCIN AMINONUCLEOSIDE-5′-MONOPHOSPHATE] | 12.9
CN(CC[C@H](N)CC(=O)N[C@H]1C=C[C@H](N2C=C[C@@](N)(O)NC2=O)O[C@@H]1C(=O)O)C(=N)N [DB04649, TETRAHEDRAL INTERMEDIATE OF BLASTICIDIN S] | 20.09
NCCCCCCNCCCCCCN [DB04684, BIS(HEXAMETHYLENE)TRIAMINE] | 9.3
N[C@@H](CCC(=O)N[C@@H](CS(=O)O)C(=O)NCC(=O)O)C(=O)O [DB04700, GLUTATHIONE SULFINATE] | 9.98
CSC[C@H](NC(=O)CC[C@H](N)C(=O)O)C(=O)NCC(=O)O [DB04701, S-METHYL-GLUTATHIONE] | 40.1
Cc1ncc(COP(=O)(O)O)c(CN[C@H](CCC(=O)O)C(=O)O)c1O [DB04762, N-PYRIDOXYL-D-GLUTAMIC ACID-5′-MONOPHOSPHATE] | 27.7
C[C@H](NC(=NCC(=O)O)Nc1ccc(C#N)cc1)c1ccccc1 [DB04778, SC45647] | 11.29
N-ethyl-N[3-(propylamino)propyl]propane-1,3-diamine [DB04633] | 12.798
